We go through 18 molecules from PubChem BioAssay (NCI).

Where “and” joins values, the source holds several entries; their conditions need not be identical. Identical values can stand only once.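 All cell lines were grown in 96-well plates and treated with compound for 48 hours. Here, GI50 denotes the concentration required for 50% inhibition of growth. TGI: total growth inhibition.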

Some test systems named below: MDA-MB-231 breast; PC-3 prostate; DU-145 prostate; MDA-MB-435.
Common to all, as to experiment: NCI-60 cell line screen, 48 h

As to `C[C@@H](Oc1cc(-n2cnc3ccc(OCC4CCN(C)CC4)cc32)sc1C(N)=O)c1ccccc1C(F)(F)F`, the GI50 with MDA-MB-231 breast is 0.144 µM; with PC-3 prostate, 0.114 µM; in the experiment with DU-145 prostate, 0.0643 µM; in the experiment with MDA-MB-435, 0.039 µM. The TGI in the experiment with MDA-MB-231 breast was 1.98 µM; with PC-3 prostate it was 4.08 µM; with DU-145 prostate, 0.246 µM; with MDA-MB-435, 0.0959 µM.
In the case of `COc1cc2c(c(Br)c1N)-c1cc(Br)c(N)cc1C2=O`, the GI50 in the experiment on MDA-MB-231 breast is 3.07 µM; in the experiment on PC-3 prostate, above 100 µM; with DU-145 prostate, 59.8 µM; in the experiment with MDA-MB-435 it was above 100 µM. Also, the TGI in the experiment with MDA-MB-231 breast was above 81 µM; in the experiment on PC-3 prostate, above 100 µM; in the experiment with DU-145 prostate, above 100 µM; in the experiment with MDA-MB-435 it was above 100 µM.
In the case of `COc1ccc(C2=NN(c3ccc(S(N)(=O)=O)cc3)C(c3ccc(Cl)cc3)C2)c(O)c1` (configuration not stated), the GI50 is 9.89 µM in the experiment on MDA-MB-231 breast, 2.78 µM with PC-3 prostate, 5.88 µM in the experiment on DU-145 prostate and 3.26 µM in the experiment on MDA-MB-435. The TGI in the experiment with MDA-MB-231 breast came out at 27.4 µM; with PC-3 prostate, 14.6 µM; in the experiment with DU-145 prostate, 20.7 µM; with MDA-MB-435, 13.8 µM.
In the case of `Cn1cccc1C1CC(=O)N(CCC[Se]C#N)C1=O` (configuration not stated), the GI50 was 2.19 µM in the experiment on PC-3 prostate, 1.81 µM in the experiment on DU-145 prostate and 1.78 µM in the experiment on MDA-MB-435. Further, the TGI worked out at 5.63 µM in the experiment on PC-3 prostate, 3.78 µM in the experiment with DU-145 prostate and 3.48 µM with MDA-MB-435.
Turning to `c1ccc(CNc2nc(Nc3ccc(-c4nc5ccccc5[nH]4)cc3)c3cn[nH]c3n2)cc1`, the GI50 with MDA-MB-231 breast is 2.11 µM; in the experiment on PC-3 prostate it was 1.78 µM; in the experiment on DU-145 prostate, 3.33 µM; in the experiment on MDA-MB-435 it was 1.97 µM. Besides, the TGI with MDA-MB-231 breast came to 4.97 µM; with PC-3 prostate, 6.36 µM; in the experiment with DU-145 prostate, 12.5 µM; with MDA-MB-435, 5.15 µM.
For `Cc1ccc2c(c1)/C(=N\N=C/c1cn(C(C)C)c3ccccc13)C(=O)N2`, the GI50 was 1.25 µM with MDA-MB-231 breast, 0.723 µM in the experiment with PC-3 prostate, 8.17 µM in the experiment with DU-145 prostate and 2.16 µM in the experiment with MDA-MB-435. The TGI with MDA-MB-231 breast is 5.83 µM; in the experiment on PC-3 prostate, 45.3 µM; in the experiment with DU-145 prostate, above 100 µM; in the experiment with MDA-MB-435 it was 10.3 µM.
As for `CC(=O)NNc1nc(C)c(C(/C=C/c2ccc3c(c2)OCO3)=N/NC(=O)c2ccncc2)s1`, the TGI in the experiment on MDA-MB-231 breast, with PC-3 prostate and in the experiment on MDA-MB-435 was above 100 µM throughout.
Consider `COc1ccc(C(NCCNC(c2ccc(OC)c(OC)c2)c2cc3c(cc2O)OCO3)c2cc3c(cc2O)OCO3)cc1OC` (configuration not stated), for which the TGI in the experiment on MDA-MB-231 breast came to 8.14 µM; with PC-3 prostate, 6.64 µM; with DU-145 prostate it was 8.51 µM; in the experiment on MDA-MB-435, 4.11 µM.
For `C/C(=N\NC(=S)Nc1ccccc1)c1ccccn1`, the GI50 was 0.0309 µM in the experiment with MDA-MB-231 breast, below 0.0171 µM with PC-3 prostate, 0.746 µM in the experiment with DU-145 prostate and 0.67 µM in the experiment on MDA-MB-435. Also, the TGI was 2.61 µM with MDA-MB-231 breast, 5.73 µM in the experiment on PC-3 prostate, 3.03 µM with DU-145 prostate and 4.28 µM with MDA-MB-435.
For `O=C(O)Cc1ccccc1`, the GI50 with MDA-MB-231 breast, in the experiment on PC-3 prostate and in the experiment with DU-145 prostate was above 1000 µM throughout. In addition, the TGI in the experiment on MDA-MB-231 breast is above 2000 µM; with PC-3 prostate it was above 2000 µM; in the experiment on DU-145 prostate, above 1000 µM; in the experiment on MDA-MB-435, above 2000 µM.
Consider `NC(=NCc1ccccc1)N/N=C\c1ccnc2ccccc12`, for which the TGI in the experiment on MDA-MB-231 breast turned out to be 28.2 µM; with PC-3 prostate, 35.9 µM; in the experiment with DU-145 prostate, 32.3 µM; in the experiment on MDA-MB-435, 23.9 µM.
As to `O=[N+]([O-])c1ccc([I+]c2ccccc2)cc1`, the GI50 with MDA-MB-231 breast was 2.1 µM; in the experiment on PC-3 prostate, 2.16 µM; with DU-145 prostate, 2.25 µM; with MDA-MB-435 it was 1.85 µM. The TGI in the experiment with MDA-MB-231 breast was 12.9 µM and 4.9 µM; in the experiment on PC-3 prostate it was 11 µM and 5.21 µM; in the experiment with DU-145 prostate, 25 µM and 6.35 µM; with MDA-MB-435, 23.3 µM and 4.33 µM.
As to `CC1(C)OCC(C2OC(On3nnc4ccc(Cl)cc43)C3OC(C)(C)OC23)O1` (configuration not stated), the TGI with MDA-MB-231 breast, in the experiment with PC-3 prostate, in the experiment on DU-145 prostate and in the experiment on MDA-MB-435 was above 100 µM each time.
As for `O=C1c2cccnc2-c2nc(-c3ccccc3)cc3c2c1nc1ccccc13`, the GI50 with MDA-MB-231 breast was 4.33 µM; with PC-3 prostate, 3.42 µM; in the experiment with DU-145 prostate, 13.6 µM; in the experiment on MDA-MB-435 it was 1.53 µM. The TGI with MDA-MB-231 breast was above 100 µM; in the experiment with PC-3 prostate, 73.2 µM; with DU-145 prostate, 30.2 µM; with MDA-MB-435, 2.96 µM.
Take `COc1ccc2c(c1)C(=O)/C(=C/c1ccc(OCC(=O)c3ccc(Cl)cc3)cc1)O2`: the GI50 in the experiment on MDA-MB-231 breast was 17 µM; in the experiment with PC-3 prostate, 14.7 µM; with DU-145 prostate, 16.4 µM; with MDA-MB-435, 22.9 µM. In addition, the TGI with MDA-MB-231 breast worked out at 89.7 µM; in the experiment with PC-3 prostate, 69.1 µM; in the experiment on DU-145 prostate it was 29.9 µM; with MDA-MB-435, 91.8 µM.
`Cn1cc(-c2csc(-c3cn(C)c4ncccc34)n2)c2ccccc21`: the GI50 was 2.82 µM in the experiment on MDA-MB-231 breast, 0.397 µM in the experiment on PC-3 prostate, 0.436 µM in the experiment with DU-145 prostate and 0.0414 µM in the experiment with MDA-MB-435. Moreover, the TGI in the experiment on MDA-MB-231 breast was 37.8 µM; in the experiment on PC-3 prostate, above 100 µM; with DU-145 prostate, 23.5 µM; in the experiment on MDA-MB-435, 0.186 µM.
For `CC1(C)CCC(CN2CCN(c3ccc(C(=O)NS(=O)(=O)c4ccc(NCC5CCOCC5)c([N+](=O)[O-])c4)c(Oc4cnc5[nH]ccc5c4)c3)CC2)=C(c2ccc(Cl)cc2)C1`, the GI50 in the experiment with MDA-MB-231 breast was 1.78 µM; with PC-3 prostate it was 1.93 µM; with DU-145 prostate, 4.47 µM; in the experiment with MDA-MB-435, 2.07 µM. In addition, the TGI with MDA-MB-231 breast turned out to be 4 µM; in the experiment with PC-3 prostate it was 5.54 µM; in the experiment with DU-145 prostate, 21.3 µM; in the experiment on MDA-MB-435, 5.38 µM.
Regarding `CCN1C(=O)N(CC)C2C1NN=c1s/c(=C\c3ccc([N+](=O)[O-])cc3)c(=O)n12` (configuration not stated), the GI50 in the experiment on MDA-MB-231 breast was 1.42 µM; with PC-3 prostate, 0.387 µM; with DU-145 prostate, 0.424 µM. Also, the TGI was above 44.2 µM in the experiment on MDA-MB-231 breast, above 75.9 µM with PC-3 prostate and above 100 µM with DU-145 prostate.
